Laboratory results as given in US20250136552A1, “ANTAGONISTS OF CAV 2.3” (LARIO THERAPEUTICS LIMITED, priority 2021, published 2025).
Where two headings read alike, the source gives them in different places.

Experiments:
Cav2.3 [1] = target: T1, Cav2.3 (Homo sapiens, UniProt Q15878); conditions: read-out: IC50 against Cav2.3; cited from earlier work
Target sequence in this assay (Q15878 whole entry): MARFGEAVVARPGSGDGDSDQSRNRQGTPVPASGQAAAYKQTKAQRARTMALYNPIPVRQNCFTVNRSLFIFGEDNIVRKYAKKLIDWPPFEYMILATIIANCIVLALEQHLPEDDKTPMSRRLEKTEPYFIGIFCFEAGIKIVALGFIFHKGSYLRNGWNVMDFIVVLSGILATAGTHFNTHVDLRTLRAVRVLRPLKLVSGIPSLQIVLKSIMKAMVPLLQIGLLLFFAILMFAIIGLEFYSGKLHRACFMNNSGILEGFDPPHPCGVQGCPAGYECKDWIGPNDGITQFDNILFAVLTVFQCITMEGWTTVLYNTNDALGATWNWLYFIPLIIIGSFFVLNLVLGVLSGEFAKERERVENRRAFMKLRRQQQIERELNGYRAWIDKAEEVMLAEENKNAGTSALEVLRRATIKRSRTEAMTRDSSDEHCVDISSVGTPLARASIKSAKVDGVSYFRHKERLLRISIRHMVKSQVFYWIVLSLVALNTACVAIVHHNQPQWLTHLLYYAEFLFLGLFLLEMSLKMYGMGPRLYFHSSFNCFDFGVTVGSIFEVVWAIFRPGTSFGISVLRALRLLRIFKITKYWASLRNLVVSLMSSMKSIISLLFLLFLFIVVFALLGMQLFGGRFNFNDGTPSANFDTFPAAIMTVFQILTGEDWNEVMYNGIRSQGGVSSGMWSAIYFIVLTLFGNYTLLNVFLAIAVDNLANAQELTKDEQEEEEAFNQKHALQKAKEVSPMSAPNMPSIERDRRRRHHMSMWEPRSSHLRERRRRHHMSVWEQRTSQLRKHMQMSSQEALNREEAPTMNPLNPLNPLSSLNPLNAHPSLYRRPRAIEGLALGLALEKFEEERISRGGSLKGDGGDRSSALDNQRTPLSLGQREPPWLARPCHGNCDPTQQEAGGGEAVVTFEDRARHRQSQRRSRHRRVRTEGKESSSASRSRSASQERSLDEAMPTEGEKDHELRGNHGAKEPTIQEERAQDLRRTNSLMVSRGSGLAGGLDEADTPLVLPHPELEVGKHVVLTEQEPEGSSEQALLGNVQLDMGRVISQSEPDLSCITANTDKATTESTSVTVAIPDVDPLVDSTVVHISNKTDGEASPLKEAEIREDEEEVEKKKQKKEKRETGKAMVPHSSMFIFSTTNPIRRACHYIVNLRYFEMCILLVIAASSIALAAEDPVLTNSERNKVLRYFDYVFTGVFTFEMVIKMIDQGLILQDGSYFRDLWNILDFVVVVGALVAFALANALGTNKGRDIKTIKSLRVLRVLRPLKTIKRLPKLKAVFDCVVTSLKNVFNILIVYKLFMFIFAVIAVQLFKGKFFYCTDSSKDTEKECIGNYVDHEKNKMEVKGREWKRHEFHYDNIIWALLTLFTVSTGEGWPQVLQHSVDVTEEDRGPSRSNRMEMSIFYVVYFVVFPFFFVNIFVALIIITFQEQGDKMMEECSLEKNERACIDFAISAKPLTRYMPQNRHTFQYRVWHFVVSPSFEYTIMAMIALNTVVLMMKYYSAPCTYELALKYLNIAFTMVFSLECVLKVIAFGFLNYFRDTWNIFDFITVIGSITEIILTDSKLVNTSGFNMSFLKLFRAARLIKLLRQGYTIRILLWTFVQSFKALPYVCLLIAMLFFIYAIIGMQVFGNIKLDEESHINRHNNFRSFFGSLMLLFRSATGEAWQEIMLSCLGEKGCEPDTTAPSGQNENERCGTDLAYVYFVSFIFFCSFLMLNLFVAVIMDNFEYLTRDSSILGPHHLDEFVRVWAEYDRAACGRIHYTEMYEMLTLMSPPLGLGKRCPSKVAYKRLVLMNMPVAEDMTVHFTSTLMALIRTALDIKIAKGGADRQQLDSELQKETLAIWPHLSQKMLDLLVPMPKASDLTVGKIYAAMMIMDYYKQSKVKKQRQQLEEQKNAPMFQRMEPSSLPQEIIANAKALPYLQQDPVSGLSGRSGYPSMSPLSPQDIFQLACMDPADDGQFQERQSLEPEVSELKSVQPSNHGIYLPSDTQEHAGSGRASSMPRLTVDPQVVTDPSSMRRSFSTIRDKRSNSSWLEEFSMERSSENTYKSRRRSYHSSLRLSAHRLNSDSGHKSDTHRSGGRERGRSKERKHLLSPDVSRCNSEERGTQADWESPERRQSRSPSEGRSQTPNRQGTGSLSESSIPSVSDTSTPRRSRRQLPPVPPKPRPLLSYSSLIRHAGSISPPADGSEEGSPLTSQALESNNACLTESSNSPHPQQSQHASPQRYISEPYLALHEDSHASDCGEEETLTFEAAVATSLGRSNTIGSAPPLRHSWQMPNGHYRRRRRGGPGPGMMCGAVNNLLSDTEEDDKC

Cav2.3 [2] = target: T1, Cav2.3; assay: Human Cav2.3 channel calcium-influx assay; type: cell-based; conditions: HEK-293 T-Rex/Kir2.1 cells with inducible Cav2.3e-β4-α2δ1; Fluo8 fluorescence; 8-point dose response from 30 μM; no pluronic acid; read-out: Cav2.3 (pIC50) (converted)
Description: HEK-293 T-Rex cells were transfected with pcDNA3.1-Kir2.1 to generate a stable cell line. After antibiotic selection, the obtained stable pools were analysed using FLIPR^TETRA(membrane potential assay), and a limiting dilution was performed and a HEK-293 T-Rex/Kir2.1 clone was selected. The clone was transfected with pcDNA3.1-Cav2.3e and pBud-Cav-β4-α2δ1 to generate a stable cell line where the Cav2.3e expression is inducible. After antibiotic selection, functional clone pool analysis and two successive limiting dilutions, the final clone underwent a qPCR analysis and a biophysical and pharmacological validation using patch-clamp.
A compound plate, containing 10 test compounds in eight-points dose response with n=4, was prepared. Test compounds dose response curves were prepared in automated fashion in 100% DMSO at CyBio Felix and starting from a stock solution in 100% DMSO; a defined volume was serially moved into destination wells pre-filled with the desired DMSO volume; stock solution concentration volumes were dependent on the final compounds concentrations to be tested and the final DMSO content used in the assay. For the assay test compounds dose response curves ranged from 30 μM and half log dilution with 0.3% final DMSO. In order to obtain the 8-points dose response curve all the concentrations were created by starting from a 10 mM DMSO stock solution and then moving 9.5 μL into a destination well pre-filled with 20.5 μL of 100% DMSO and repeating this step seven times. This initial step was done into 96 MTP plates, 10 compounds/plate. One 384 MTP was then reformatted to contain all the 10 compounds at 8 concentrations, quadruplicate data points. This so obtained 384 MTP compound plate served as source plate in a “mother to child” process with a CyBi®-Well dispenser in which 0.7 μL of compounds were moved into a destination plate pre-filled with 57.6 μL of Tyrode's buffer 0 mM K^+, thus obtaining 4× concentrated compounds solution. In columns 1-2 and 23-24 the control wells were added. Both “source” compound plate and “destination” compound plate were barcoded and a relationship between the two plates was thus generated.
The day before the experiment, cells were detached by gentle wash with DPBS, followed by 5 min incubation at 37° C. with Trypsin solution. Detached cells were diluted with OptiMEM+Doxycycline at 0.2 μg/mL, counted and plated in Poly-D-Lysine coated black/clear bottom (15.000 c/well in 20 μl/well) by the use of a MATRIX WellMate dispenser. Plates were placed into a humidified incubator at 37° C. with 5% CO2 until the experimental day. 24 h after seeding 10 μL/well of 1.5× Fluo8 NW dye solution prepared in Tyrode's buffer 0 mM K^+ were added on top of the seeding medium. Cell plates were incubated for 40-60 min at RT in the dark. We then Injected off-line 10 μL/well of test compounds and controls 4× concentrated in Tyrode's Buffer 0 mM K+ with the CyBi®-Well instrument. Cell plates were incubated 3 minutes at RT. Finally, we injected 20 μL/well of 3× concentrated activator solution (K20-Na130-Ca2 buffer: 20 mM KCl, 130 mM NaCl, 2 mM CaCl2, 10 mM HEPES, 10 mM Glucose, final concentrations, prepared starting from “K0-Na150-Ca2” and “K150-Na0-Ca2” buffers) at FDSS7000EX instrument and read emitted fluorescence for 130 seconds.
Data analysis was performed with Genedata Screener® software and reported compounds activity as % effect in relation to the normalization standards. The Kinetic Response Value (KRV) is calculated as follows:
KRV=Maximal fluorescence recorded from second 5 to second 130 minus baseline fluorescence, computed as average from second 1 to second 2, of the kinetic trace. The KRV was normalized versus Neutral Controls and Inhibitor Controls in order to obtain the Activity[%] for each well. […] Therefore, the compound activity values were scaled (based on the two references) to a common range (two-point normalization). […]
Target sequence in this assay (Q15878 1-2270 isoform Q15878-3): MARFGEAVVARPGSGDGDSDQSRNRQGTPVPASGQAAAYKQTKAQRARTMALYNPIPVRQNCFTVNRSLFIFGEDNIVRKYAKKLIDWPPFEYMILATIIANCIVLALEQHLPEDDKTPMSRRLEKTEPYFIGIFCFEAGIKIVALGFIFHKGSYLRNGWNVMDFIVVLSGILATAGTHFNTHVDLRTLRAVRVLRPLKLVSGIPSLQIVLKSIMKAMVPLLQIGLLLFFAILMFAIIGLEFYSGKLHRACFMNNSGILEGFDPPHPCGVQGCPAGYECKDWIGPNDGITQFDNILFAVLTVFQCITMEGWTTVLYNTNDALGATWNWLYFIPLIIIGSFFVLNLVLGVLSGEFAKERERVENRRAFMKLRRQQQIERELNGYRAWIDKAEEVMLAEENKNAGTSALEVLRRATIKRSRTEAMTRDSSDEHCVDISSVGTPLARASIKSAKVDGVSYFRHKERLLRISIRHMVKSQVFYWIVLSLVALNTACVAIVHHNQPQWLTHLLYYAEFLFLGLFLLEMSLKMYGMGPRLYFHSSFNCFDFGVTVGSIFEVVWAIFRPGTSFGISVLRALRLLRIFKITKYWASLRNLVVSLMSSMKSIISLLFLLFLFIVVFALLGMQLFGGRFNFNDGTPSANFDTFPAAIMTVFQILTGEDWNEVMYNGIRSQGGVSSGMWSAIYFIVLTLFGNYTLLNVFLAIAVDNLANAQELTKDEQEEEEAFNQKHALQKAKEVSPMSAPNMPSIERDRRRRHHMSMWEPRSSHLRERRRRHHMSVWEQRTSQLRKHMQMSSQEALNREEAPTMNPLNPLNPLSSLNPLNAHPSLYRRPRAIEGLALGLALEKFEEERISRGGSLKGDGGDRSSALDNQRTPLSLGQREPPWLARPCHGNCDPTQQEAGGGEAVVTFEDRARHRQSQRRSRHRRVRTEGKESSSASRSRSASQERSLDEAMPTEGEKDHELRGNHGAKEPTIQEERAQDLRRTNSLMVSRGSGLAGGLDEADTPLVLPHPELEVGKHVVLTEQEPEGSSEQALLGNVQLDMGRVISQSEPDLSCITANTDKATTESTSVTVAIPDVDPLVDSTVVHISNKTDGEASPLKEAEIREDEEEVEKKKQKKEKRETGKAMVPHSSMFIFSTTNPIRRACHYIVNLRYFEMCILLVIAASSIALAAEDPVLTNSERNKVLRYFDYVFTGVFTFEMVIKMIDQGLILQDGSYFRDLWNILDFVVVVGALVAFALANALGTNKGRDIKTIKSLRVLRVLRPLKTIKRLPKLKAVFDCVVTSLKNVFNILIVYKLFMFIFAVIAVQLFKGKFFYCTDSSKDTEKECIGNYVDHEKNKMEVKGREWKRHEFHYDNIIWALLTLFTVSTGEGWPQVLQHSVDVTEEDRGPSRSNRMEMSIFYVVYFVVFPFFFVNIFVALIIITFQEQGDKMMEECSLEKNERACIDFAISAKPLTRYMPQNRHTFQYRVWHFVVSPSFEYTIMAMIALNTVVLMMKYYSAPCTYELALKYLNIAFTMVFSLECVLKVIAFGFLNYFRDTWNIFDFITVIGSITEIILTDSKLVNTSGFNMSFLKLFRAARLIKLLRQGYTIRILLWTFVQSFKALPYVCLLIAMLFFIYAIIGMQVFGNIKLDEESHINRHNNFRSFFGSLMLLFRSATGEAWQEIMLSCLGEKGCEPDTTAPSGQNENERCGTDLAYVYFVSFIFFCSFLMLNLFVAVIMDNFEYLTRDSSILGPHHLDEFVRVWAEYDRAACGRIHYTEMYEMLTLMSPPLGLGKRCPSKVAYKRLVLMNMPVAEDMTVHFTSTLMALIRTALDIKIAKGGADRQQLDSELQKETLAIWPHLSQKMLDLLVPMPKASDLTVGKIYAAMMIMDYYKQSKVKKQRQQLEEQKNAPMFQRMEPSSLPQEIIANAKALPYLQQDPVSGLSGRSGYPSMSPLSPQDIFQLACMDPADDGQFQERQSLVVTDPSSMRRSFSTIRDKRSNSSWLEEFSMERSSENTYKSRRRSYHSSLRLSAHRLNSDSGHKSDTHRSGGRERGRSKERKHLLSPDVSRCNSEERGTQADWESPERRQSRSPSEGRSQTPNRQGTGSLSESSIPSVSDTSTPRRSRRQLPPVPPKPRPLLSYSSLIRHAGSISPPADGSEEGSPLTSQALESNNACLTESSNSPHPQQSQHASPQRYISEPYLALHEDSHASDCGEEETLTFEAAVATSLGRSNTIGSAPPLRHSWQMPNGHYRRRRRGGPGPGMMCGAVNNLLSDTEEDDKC

[3] = target: Cav2.3 dependent current in HEK-293 T-Rex/Kir2.1/Cav2.3e-β4-α2δ1 cells (Homo sapiens, UniProt Q15878); assay: Whole-cell patch clamp assay (QPatch 16X); type: cell-based; conditions: whole-cell voltage clamp, room temperature, inward current density; mean ± S.E; read-out: Cav2.3 (pIC50) (converted)
Description: HEK-293 T-Rex/Kir2.1/Cav2.3e-β4-α2δ1 cells were seeded 96 hours before experiment and doxycycline at 0.2 μg/mL was added 24 hours before experiment. Just before the experiments cells were washed twice with D-PBS w/o Ca2+/Mg2+ and gently detached from the flask with Detachin. Cells were then re-suspended in the suspension solution (25 mL EX-CELL ACF CHO medium; 0.25 mL of 100× Penicillin/Streptomycin) and placed on the Automated Patch-clamp platform (QPatch 16X).
Standard whole-cell voltage clamp experiments were performed at room temperature using the single hole technology and the following intracellular and extracellular solutions (ICS and ECS, respectively) were used. ICS (mM): CsF 60, CsCl 50, NaCl 10, EGTA 20, BAPTA 5, HEPES 10, NaGTP 0.3, MgATP 5 (pH 7.2; ECS (mM): NMDG-Cl 120, BaCl2 20, HEPES 10, EGTA 7 (pH 7.4). After establishment of the seal and the passage in the whole-cell configuration, the Cav2.3 dependent current was evoked by challenging the cells with the following voltage protocol: the plasma membrane was held at −80 mV then a 50 ms-long depolarizing pulse at 0 mV, followed by a 50 ms-long hyperpolarizing pulse at −100 mV were applied and finally the plasma membrane was held back to −80 mV. This voltage protocol was applied every 10 seconds. Cav2.3 dependent current was first measured in control condition (vehicle, 0.1% DMSO), in the presence of increasing concentration of the compound under investigation and finally SNX 482 was added to fully block any R-type Cav2.3 dependent current.
For data collection, the Sophion proprietary software was used while the analysis was performed off-line using Excel and GraphPad Prism. The inward current (Area Under Curve) measured during each depolarizing pulse was normalized to cell membrane capacitance (Cm) to obtain the average inward current density in each condition (control, compound under investigation and SNX 482). Then, the inhibitory effect of the compound under investigation was evaluated as % of the remaining inward current, normalized to the internal control. […] All data were expressed as mean±S.E

Cav2.3 dependent current in HEK-293 T-Rex/Kir2.1/Cav2.3e-β4-α2δ1 cells, sequence (Q15878 1-2270 isoform Q15878-3): as above

Compound	IC50 (Cav2.3 [2]) [nM]	IC50 [3] [nM]	IC50 (Cav2.3 [1]) [nM]
SNX-482 (GVDKAGCRYMFGGCSVNDDCCPRLGCHSLFSYCAWDLTFSD; UniProt P56854 1-41, looked up)	–	–	15 to 30
CCN([C@@H](C)c1ccc(C(F)(F)F)cc1)S(=O)(=O)c1ccc2c(c1)CN(C(=O)C(C)C)CC2 [Example 1, (S)-N-ethyl-2-isobutyryl-N-(1-(4-(trifluoromethyl)phenyl)ethyl)-1,2,3,4-tetrahydroisoquinoline-7-sulfonamide]	661	251	–
CC(C)C(=O)N1CCc2ccc(S(=O)(=O)N(C)[C@H](c3ccc(F)cc3)C(F)(F)F)cc2C1 [Example 9, (R)-2-isobutyryl-N-methyl-N-(2,2,2-trifluoro-1-(4-fluorophenyl)ethyl)-1,2,3,4-tetrahydroisoquinoline-7-sulfonamide]	676	525	–
CCN([C@H](c1ccc(F)cc1)C(F)(F)F)S(=O)(=O)c1ccc2c(c1)CN(C(=O)C(C)C)CC2 (stereo in doubt) [Example 6, N-ethyl-2-isobutyryl-N-(2,2,2-trifluoro-1-(4-fluorophenyl)ethyl)-1,2,3,4-tetrahydroisoquinoline-7-sulfonamide]	398	87.1	–

Continued, in another order:

IC50 (Cav2.3 [2]) [nM]	IC50 [3] [nM]	Compound	IC50 (Cav2.3 [1]) [nM]
724	1120	CCN([C@@H](C)c1ccccc1)S(=O)(=O)c1ccc2c(c1)CN(C(=O)C1CC1)CC2 [Example 14, (S)-2-(cyclopropanecarbonyl)-N-ethyl-N-(1-phenylethyl)-1,2,3,4-tetrahydroisoquinoline-7-sulfonamide]	–
513	204	CC(C)C(=O)N1CCc2ccc(S(=O)(=O)N(CCF)C(c3ccc(F)cc3)C(F)(F)F)cc2C1 (stereo not shown) [Example 49, N-(2-fluoroethyl)-2-isobutyryl-N-(2,2,2-trifluoro-1-(4-fluorophenyl)ethyl)-1,2,3,4-tetrahydroisoquinoline-7-sulfonamide]	–
537	93.3	CCN([C@@H](C)c1ccc(F)cc1)S(=O)(=O)c1ccc2c(c1)CN(C(=O)C(C)C)CC2 [Example 12, (S)-N-ethyl-N-(1-(4-fluorophenyl)ethyl)-2-isobutyryl-1,2,3,4-tetrahydroisoquinoline-7-sulfonamide]	–
